Data taken from patent US9499496B2, “Inhibitors of respiratory syncytial virus” (University of Kansas, priority 2012, dated 2016).
“And” between values parts separate entries of the source, which are not always exact repeats. Equal entries are not always repeated. Where two headings read alike, the source gives them in different places. Marks after values point to notes of the source that are not given here.

Key:
RSV [1] = assay: RSV CPE assay (inhibition of RSV-induced cytopathic effect, luminescent cell viability readout); assay type: cell-based, RSV (strain Long); settings: for Selectivity Index (CC50/EC50): antiviral activity over HEp-2 cell cytotoxicity
RSV [2] = assay: RSV plaque reduction assay (titer reduction); assay type: cell-based, RSV Long strain; settings: HEp-2 cells; for Plaque Reduction Assay (log reduction) at 10 μM: 10 μM test compound; for Plaque Reduction Assay (log reduction): concentration not given
RSV [3] = assay: Time of addition CPE assay; assay type: cell-based, RSV Long strain; settings: for Change in cell viability with time of addition: addition at time points between 7-24 hours post-infection
Procedure: Assay Description: HEp-2 cells were plated in 96 well black tissue culture plates at 10,000 cells per well in 80 μl and incubated 24 hours at 37° C., 5% CO2. All cell plating was conducted using a Matrix WellMate™ and cells were maintained at room temperature with stirring during the plating process. Compounds were diluted in media to give a final concentration of 25 μM and added to plates at −1, 0, 1, 4, 6, 20 and 24 hours post-infection (p.i.). The cells were infected with RSV Long strain at an MOI of 3 and the assay plates were incubated for six days at 37° C., 5% CO2 and 90% relative humidity.
The Cell Titer Glo® assay was used to determine viability of the cells. The assay plates were equilibrated to room temperature for 10 minutes and then an equal volume of Cell Titer-Glo reagent (Promega Inc.) was added to each well. Plates were incubated for 10 min at room temperature and luminescence was measured using a multi-label plate reader with an integration time of 0.1 s.
A cell-based assay was used to determine the ability of the probe to inhibit different stages of a single round of viral replication. […] Compounds B and F (diamonds and squares, respectively) are of similar chemical structure. The percent cell viability values at each time point for the respective molecules are compared with that of ribavirin (RBV). […] This sustained efficacy may be due to the inhibition of one or more late virus life cycle steps (post-entry or late-stage infection processes), and this hypothesis is supported by an ability to affect processes later in the viral replication cycle.

HEp-2 cells = settings: HEp-2 cell cytotoxicity
in vitro [4] = settings: human
[5] = Stability in PBS over 48 h; settings: for Stability in PBS (% parent remaining after 48 h), with acetonitrile: PBS with 50% acetonitrile; for Stability in PBS (% parent remaining after 48 h): no additives, 23° C.
physchem [6] = settings: 23 °C, pH 7.4, aqueous buffer
physchem [7] = settings: plasma or biological fluid
in vitro [8] = settings: PAMPA
vaccinia = assay type: cell-based
influenza A = assay type: cell-based
[9] = system: Venezuelan equine encephalitis; assay type: cell-based
dengue viruses = assay type: cell-based
[10] = system: Calcium Channel L-Type, Benzothiazepine; assay: Ricerca LeadProfiling screen; assay type: binding; settings: 10 μM, duplicate, rat
[11] = system: Calcium Channel L-Type, Dihydropyridine; assay: Ricerca LeadProfiling screen; assay type: binding; settings: 10 μM, duplicate, rat
[12] = system: Ricerca LeadProfiling screen made up of 67 assays; assay: Ricerca LeadProfiling screen, all other targets of the 67 assays; assay type: binding; settings: 10 μM, duplicate
[13] = human respiratory syncytial virus, HEp-2 cells, RSV-induced CPE, read-out: CPE Assay EC50

Row | SMILES | EC50 (RSV [1]; [13]) [nM] | Plaque Reduction Assay (log reduction) at 10 μM (RSV [2]) | Plaque Reduction Assay (log reduction) (RSV [2]) | Change in cell viability with time of addition (RSV [3]) | CC50 at 6 days (in vitro [4]; CC50, HEp-2 cell cytotoxicity) [nM] | Selectivity Index (CC50/EC50) (RSV [1]) | solubility (physchem [6]) | solubility (physchem [7]) | further results
1 | COCCCNC(=O)c1ccc(Cn2c(=O)c3ccccc3n(Cc3ccc([N+](=O)[O-])cc3)c2=O)cc1 [Compound B, N-(3-methoxypropyl)-4-((1-(4-nitrobenzyl)-2,4-dioxo-1,2-dihydroquinazolin-3(4H)-yl)methyl)benzamide] | 570 ± 14 | >5.56 log reduction | >5.56^a log reduction | does not result in a dramatic change in cell viability | 128000 ± 4240 | – | – | – | EC50 (RSV [1]; human respiratory syncytial virus, repeat of the RSV CPE assay, read-out: RSV CPE assay, repeated): 200 nM; CC50 (HEp-2 cells): > 128000 nM; Stability in PBS (% parent remaining after 48 h), with acetonitrile [5]: 94.9% (with; Stability in PBS (% parent remaining after 48 h) [5]: 83.4% (PBS);
2 | CN(C)c1ccc(Cn2c(=O)n(Cc3ccc(C(=O)NCC4COC4)cc3)c(=O)c3ccccc32)cc1 [Compound E, 4-((1-(4-(dimethylamino)benzyl)-2,4-dioxo-1,2-dihydroquinazolin-3(4H)-yl)methyl)-N-(oxetan-3-ylmethyl)benzamide] | 1070 ± 220 | >6.18 log reduction | >6.18 log reduction | – | ~50000 | 41.8 | 5.6 µg/mL and 11.2 µM | 9.2 µg/mL and 18.4 µM | Plaque Reduction Assay (log reduction) (RSV [2]; listed as FIG. 5, entry 7): > 6 log reduction; CC50 (HEp-2 cells): 44700 ± 7220 nM
3 | COCCCNC(=O)c1ccc(Cn2c(=O)c3ccccc3n(Cc3ccc(Br)cc3)c2=O)cc1 [Compound C, 4-((1-(4-bromobenzyl)-2,4-dioxo-1,2-dihydroquinazolin-3(4H)-yl)methyl)-N-(3-methoxypropyl)benzamide] | 850 ± 150 | 4.07 log reduction | 4.07 log reduction | – | 98800 ± 8700 | 118.9 | 0.31 µg/mL and 0.58 µM | 2.7 µg/mL and 5.03 µM | Stability in PBS (% parent remaining after 48 h), with acetonitrile [5]: 100% (with; Stability in PBS (% parent remaining after 48 h) [5]: 57.5% (PBS);
4 | Cc1ccc(Cn2c(=O)n(Cc3ccc(C(=O)NCC4COC4)cc3)c(=O)c3ccccc32)cc1 [Compound F, 4-((1-(4-methylbenzyl)-2,4-dioxo-1,2-dihydroquinazolin-3(4H)-yl)methyl)-N-(oxetan-3-ylmethyl)benzamide] | 710 ± 130 | 5.10 log reduction | 5.1 log reduction | does not result in a dramatic change in cell viability | – | – | 4.5 µg/mL and 0.75 µM | 4.5 µg/mL and 9.58 µM | EC50 (RSV [1]; human respiratory syncytial virus, HEp-2 cells, read-out: CPE EC50 (potency) as given): ~700 nM
5 | CCc1ccc(Cn2c(=O)n(Cc3ccc(C(=O)NCCCOC)cc3)c(=O)c3ccccc32)cc1 [Compound D, 4-((1-(4-ethylbenzyl)-2,4-dioxo-1,2-dihydroquinazolin-3(4H)-yl)methyl)-N-(3-methoxypropyl)benzamide] | 1000 ± 50 | 5.90 log reduction | 5.90 log reduction | – | 94800 ± 3750 | 94.9 and 94.5 | – | 1.5 µg/mL and 3.09 µM | –
6 | CNC(=C[N+](=O)[O-])NCCSCc1ccc(CN(C)C)o1 [Ranitidine] | – | – | – | – | – | – | – | – | Papp (in vitro [8]): < 10 ×10⁻⁶ cm/s; Papp (in vitro [8]; pH 7.4): < 10 ×10⁻⁶ cm/s
7 | COCCCNC(=O)c1ccc(Cn2c(=O)c3ccccc3n(Cc3ccc(C)cc3)c2=O)cc1 [hit compound, 4-((1-(4-methylbenzyl)-2,4-dioxo-1,2-dihydroquinazolin-3(4H)-yl)methyl)-N-(3-methoxypropyl)benzamide] | 2140 | – | 4.15 log reduction | – | 59500 | – | – | – | –
8 | COCCCNC(=O)c1ccc(Cn2c(=O)c3ccccc3n(Cc3ccc(C(C)C)cc3)c2=O)cc1 [Compound A, 4-((1-(4-isopropylbenzyl)-2,4-dioxo-1,2-dihydroquinazolin-3(4H)-yl)methyl)-N-(3-methoxypropyl)benzamide] | – | 6.7 log reduction and 6.70 log reduction | 6.70 log reduction | does not result in a dramatic change in cell viability | > 200000 | – | – | – | EC50 (RSV [1]; human respiratory syncytial virus, read-out: RSV CPE assay, repeated, repeat of the RSV CPE assay): 340 nM; EC50 (RSV [1]; read-out: CPE Assay EC50, HEp-2 cells, RSV-induced CPE): 810 nM; Latest effective time of addition (RSV [3]; single round of viral replication, compound added −1 to 24 h post-infection): > 24 hours post-infection; Efficacy in inhibiting vaccinia (vaccinia): no efficacy; Efficacy in inhibiting influenza A (influenza A): no efficacy; Efficacy in inhibiting Venezuelan equine encephalitis virus [9]: no efficacy; Efficacy in inhibiting dengue viruses (dengue viruses): no efficacy; Percent Inhibition [10]: 52%; Percent Inhibition [11]: 70%; Inhibition, all other targets [12]: below 34%
9 | NC(=O)c1ncn([C@@H]2O[C@H](CO)[C@@H](O)[C@H]2O)n1 [ribavirin, reference compound] | 28400 | 2.47 log reduction | – | – | – | – | – | – | Protection of cells from RSV-induced CPE (RSV [3]; added up to 7 hours post-infection): approximately 100%; CC50 at 6 days (in vitro [4]): 114000 ± 38500 nM
